For this assay, the target named is recombinant IL4I1 (Homo sapiens (Human), UniProt Q96RQ9). The assay is described as follows: IL4I1 Enzymatic Assay (Amplex Red/HRP coupled fluorescence detection of H2O2). The class given is biochemical. The conditions noted are these: 240 min; recombinant IL4I1, four-hour pre-incubation with compound. The method in brief: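 Recombinant human IL4I1 (1 nM final) pre-incubated 4 h with compound at ambient temperature in 50 mM Hepes pH 7.0, 0.005% Tween20. Started with 1 mM each Phe/Tyr/Trp plus Amplex Red/HRP; H2O2-derived resorufin fluorescence read after 120 min; EC50 from ten-point 1:3 titration, four-parameter fit.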
Sequence of recombinant IL4I1 (Q96RQ9 22-567): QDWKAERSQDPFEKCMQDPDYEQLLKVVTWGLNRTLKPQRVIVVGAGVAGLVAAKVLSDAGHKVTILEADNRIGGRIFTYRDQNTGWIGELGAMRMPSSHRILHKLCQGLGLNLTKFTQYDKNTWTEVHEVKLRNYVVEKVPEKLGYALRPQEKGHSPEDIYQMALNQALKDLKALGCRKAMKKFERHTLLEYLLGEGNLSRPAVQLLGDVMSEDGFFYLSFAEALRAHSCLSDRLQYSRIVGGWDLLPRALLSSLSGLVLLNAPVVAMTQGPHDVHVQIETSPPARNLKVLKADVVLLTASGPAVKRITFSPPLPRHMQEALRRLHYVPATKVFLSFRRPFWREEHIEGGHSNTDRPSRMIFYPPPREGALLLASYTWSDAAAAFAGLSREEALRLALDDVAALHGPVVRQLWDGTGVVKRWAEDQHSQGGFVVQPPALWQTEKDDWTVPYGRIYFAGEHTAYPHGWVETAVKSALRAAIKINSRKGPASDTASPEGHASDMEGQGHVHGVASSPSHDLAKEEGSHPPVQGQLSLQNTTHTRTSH
In general, EC50 refers to the concentration needed to bring the measured effect to its halfway point. Regarding `O=C1C(=O)N(C2CCCC2)CCN1Cc1cnc(-c2ccccc2)cn1` [Example 271, 1-cyclopentyl-4-((5-phenylpyrazin-2-yl)methyl)piperazine-2,3-dione], the EC50 came to 14 nM.
With `O=C1C(=O)N(C2CCCC2)CCN1Cc1ccc2cc[nH]c(=O)c2c1` [Example 272, 1-cyclopentyl-4-((1-oxo-1,2-dihydroisoquinolin-7-yl)methyl)piperazine-2,3-dione], the EC50 stood at 35 nM.
For the molecule `O=C1C(=O)N(C2CCCC2)CCN1Cc1cnn(-c2ccccc2)c1` [Example 273, 1-cyclopentyl-4-((1-phenyl-1H-pyrazol-4-yl)methyl)piperazine-2,3-dione], the 50% effective concentration (EC50) worked out at 19 nM.
The value for `O=C1C(=O)N(C2CCCC2)CCN1Cc1cc(-c2ccccc2)n[nH]1` [Example 274, 1-cyclopentyl-4-((3-phenyl-1H-pyrazol-5-yl)methyl)piperazine-2,3-dione] was 34 nM; that for `O=C1NCCc2ccc(CN3CCN(C4CCCC4)C(=O)C3=O)cc21` [Example 275, 1-cyclopentyl-4-((1-oxo-1,2,3,4-tetrahydroisoquinolin-7-yl)methyl)piperazine-2,3-dione] was 20 nM.
As to `O=C1C(=O)N(C23CC(C2)C3)CCN1Cc1ncc(-c2ccccc2)cn1` [Example 276, 1-(bicyclo[1.1.1]pentan-1-yl)-4-((5-phenylpyrimidin-2-yl)methyl)piperazine-2,3-dione], the EC50 amounted to 26 nM.
With `O=C1C(=O)N(C2CCC2)CCN1Cc1ncc(-c2ccccc2)cn1` [Example 277, 1-cyclobutyl-4-((5-phenylpyrimidin-2-yl)methyl)piperazine-2,3-dione], the EC50 was found to be 24 nM.
For the molecule `O=C1C(=O)N([C@H]2C[C@H]3C[C@H]3C2)CCN1Cc1ncc(-c2ccccc2)cn1` [Example 278, 1-((cis)-bicyclo[3.1.0]hexan-3-yl)-4-((5-phenylpyrimidin-2-yl)methyl)piperazine-2,3-dione], the EC50 stood at 16 nM.
As for `O=C1C(=O)N(C2CCOC2)CCN1Cc1ncc(-c2ccccc2)cn1` (stereo not shown) [Example 279, 1-((5-phenylpyrimidin-2-yl)methyl)-4-(tetrahydrofuran-3-yl)piperazine-2,3-dione], the 50% effective concentration (EC50) turned out to be 68 nM.
Consider `O=C1C(=O)N(CC2CC2)CCN1Cc1ncc(-c2ccccc2)cn1` [Example 280, 1-(cyclopropylmethyl)-4-((5-phenylpyrimidin-2-yl)methyl)piperazine-2,3-dione], for which the EC50 worked out at 38 nM.
The value for `O=C1C(=O)N(CC2CCC2)CCN1Cc1ncc(-c2ccccc2)cn1` [Example 281, 1-(cyclobutylmethyl)-4-((5-phenylpyrimidin-2-yl)methyl)piperazine-2,3-dione] was 35 nM; that for `CC1CCC1N1CCN(Cc2ncc(-c3ccccc3)cn2)C(=O)C1=O` (stereo not shown) [Example 282, 1-(2-methylcyclobutyl)-4-((5-phenylpyrimidin-2-yl)methyl)piperazine-2,3-dione] was 30 nM; that for `O=C1C(=O)N([C@H]2C[C@H]3C[C@H]3C2)CCN1Cc1nnc(-c2ccccc2)s1` [Example 283, 1-((cis)-bicyclo[3.1.0]hexan-3-yl)-4-((5-phenyl-1,3,4-thiadiazol-2-yl)methyl)piperazine-2,3-dione] was 7 nM.
The result for `O=C1C(=O)N(C2C[C@@H]3C[C@@H]3C2)CCN1Cc1ccc(-c2ccccc2)nn1` (stereo partly drawn) [Example 284, 1-((cis)-bicyclo[3.1.0]hexan-3-yl)-4-((6-phenylpyridazin-3-yl)methyl)piperazine-2,3-dione] reads 8 nM.
As to `N#CC1CC(N2CCN(Cc3nnc(-c4ccccc4)s3)C(=O)C2=O)C1` (stereo not shown) [Example 285, 3-(2,3-dioxo-4-((5-phenyl-1,3,4-thiadiazol-2-yl)methyl)piperazin-1-yl)cyclobutane-1-carbonitrile], the EC50 is 28 nM.
`CC(C)N1CCN(Cc2ncc(-c3ccccc3)cn2)C(=O)C1=O` [Example 286, 1-isopropyl-4-((5-phenylpyrimidin-2-yl)methyl)piperazine-2,3-dione]: the concentration giving a half-maximal response (EC50) stood at 34 nM.

Source of the values: patent US20240246937A1 (MERCK SHARP & DOHME LLC, priority 2021, published 2024).
